Patent US20060188913A1, “Methods and products for enhancing immune responses using imidazoquinoline compounds” (University of Iowa Research Foundation, priority 2001, published 2006)

Experiments:
Type in all cases: cell-based
hTLR9 = target: T1, hTLR9 (Homo sapiens, UniProt Q9NR96, H530R/Q688R); test: NF-kappa B luciferase activation in stably transfected 293-TLR9-Luc cells
T1 construct: 293-TLR9-Luc cells contain a genomic copy of the hTLR9 open reading frame and the NF-kappa B-luciferase cassette; expressed in transfected cells; host or cells: 293-TLR9-Luc (stably transfected human embryo kidney 293 cells)
T1 sequence (Q9NR96 26-1032 H530R/Q688R): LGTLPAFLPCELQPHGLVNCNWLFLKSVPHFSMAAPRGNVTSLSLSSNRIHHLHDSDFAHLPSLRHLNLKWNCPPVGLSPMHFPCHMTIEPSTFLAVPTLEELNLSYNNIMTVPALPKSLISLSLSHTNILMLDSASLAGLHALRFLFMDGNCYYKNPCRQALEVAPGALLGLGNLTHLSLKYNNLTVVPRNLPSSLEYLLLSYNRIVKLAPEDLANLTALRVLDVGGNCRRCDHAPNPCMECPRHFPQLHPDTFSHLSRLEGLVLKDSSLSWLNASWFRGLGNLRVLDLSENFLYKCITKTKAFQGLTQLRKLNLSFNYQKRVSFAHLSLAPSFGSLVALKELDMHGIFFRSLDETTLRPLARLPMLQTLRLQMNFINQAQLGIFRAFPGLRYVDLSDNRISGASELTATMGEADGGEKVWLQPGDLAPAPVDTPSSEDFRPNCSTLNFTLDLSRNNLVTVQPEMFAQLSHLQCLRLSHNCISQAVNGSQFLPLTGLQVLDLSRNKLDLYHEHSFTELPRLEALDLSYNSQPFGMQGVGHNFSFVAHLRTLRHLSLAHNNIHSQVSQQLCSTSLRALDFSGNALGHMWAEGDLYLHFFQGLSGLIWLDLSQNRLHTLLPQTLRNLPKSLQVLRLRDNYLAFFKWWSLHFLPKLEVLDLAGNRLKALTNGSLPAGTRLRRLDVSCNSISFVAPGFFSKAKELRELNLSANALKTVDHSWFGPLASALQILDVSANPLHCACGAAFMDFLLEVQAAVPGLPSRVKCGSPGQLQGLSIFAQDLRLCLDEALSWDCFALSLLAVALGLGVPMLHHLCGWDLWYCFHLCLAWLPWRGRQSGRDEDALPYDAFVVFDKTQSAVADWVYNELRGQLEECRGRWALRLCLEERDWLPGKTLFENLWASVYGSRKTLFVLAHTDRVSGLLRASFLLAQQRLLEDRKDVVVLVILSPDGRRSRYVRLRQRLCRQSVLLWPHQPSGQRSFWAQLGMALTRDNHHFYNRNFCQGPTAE
Method: Cells used for transfections were 293T (human embryo kidney cells, T-antigen transfected) or 293-TLR9-Luc (stable transfectants, human embryo kidney cells expressing the human TLR9 receptor and containing a genomic NF-kappa B-luciferase cassette).
Stimulation was performed 24 h after transfection. Medium of the cells was reduced to 1 ml (without medium change) and cells were stimulated with indicated amounts of R-848, LPS, ODN 8954, 2006 and IL-1 beta for 16 h.
Cell extracts were prepared by lysing the cells in 100 μl reporter lysis buffer using the freeze-thaw method. NF-kappa B stimulation was measured through luciferase activity (Promega). All data were normalized for beta-gal expression. Stimulation indices were calculated in reference to luciferase activity of medium without addition of ODN.
Since R-848 has immune modulatory properties, this experiment examined whether R-848-mediated immune responses are hTLR9-dependent. Cells stably transfected with hTLR9 and a NF-kappa B reporter construct (293-TLR-Luc cells) were incubated for 16 hours with IL-1, CpG ODN 2006, control non-CpG ODN 1982 (5′ […] 3′, SEQ ID NO:3), or increasing amounts of R-848. NF-kappa B activation was determined by measurement of luciferase activity. Activity is given in x-fold activation compared to luciferase activity in medium control.

human PBMC [1] = test: IFN-gamma secretion by human PBMC (ELISA); settings: 48 hours, compared to R-848, not shown
Method: This experiment investigated the induction of the Th1 cytokine IFN-gamma as well as the Th1-related chemokine IP-10 (IFN-gamma inducible protein). Unfractionated human PBMC from three donors were incubated for 48 hours in the presence of varying concentrations of R-848 (0.01-1.0 μg/ml), varying concentrations of CpG ODN 2006 (0.2-3.0 μg/ml), varying concentrations of negative control ODN 5177 (0.2-3.0 μg/ml), SEB (50 ng/ml), or media alone, and then the concentrations of IP-10 and IFN-gamma in the supernatant were measured by ELISA.

human PBMC [2] = test: IL-6 secretion by human PBMC (ELISA), with or without chloroquine; settings: 10 μg/ml chloroquine, 24 h, IL-6, FIG. 9
Method: Vasilakos J P et al. (2000) Cell Immunol 204:64-74. Human PBMC (n=3) were cultured for 24 h with varying concentrations of R-848 ([…]), varying concentrations of CpG ODN 2006 (0.8-6.0 μg/ml), SEB (50 ng/ml), or media alone. […] IL-6 in the supernatants was measured by ELISA. […] TLR9 is believed to have intracellular expression only.

## CpG ODN 2006
hTLR9; 293-TLR-Luc cells, 16 hours, 1 to 12 μg/ml
  NF-kappa B activation (x-fold activation compared to luciferase activity in medium control): 10- to 30 fold
hTLR9; cells expressing hTLR9 alone, 293-TLR-Luc with pcDNA (empty vector)
  hTLR9-mediated NF-kappa B activation (in words): hTLR9-mediated activation of NF-kappa B by CpG ODN 2006
Human PBMC [1]
  IFN-gamma induction: The same result was obtained
Human PBMC [2]
  inhibition of the stimulant's activity by chloroquine (in words): completely abolish
